Data from US20170283440A1, “CARM1 INHIBITORS AND USES THEREOF” (Epizyme, Inc., priority 2014, published 2017).

What was measured:
Human CARM1 (PRMT4) = molecular target: T1, Human CARM1 (PRMT4) (Homo sapiens, UniProt Q86X55); assay: CARM1 enzyme assay on peptide substrate (3H-SAM Flashplate); type: biochemical; conditions: CARM1 0.25 nM, 3H-SAM 30 nM, peptide 250 nM; read-out: Biochem IC50
T1 construct: Flag-CARM1-His was eluted with 200 ug/ml FLAG peptide in buffer A; made in house; host or cells: HEK 293F cells infected with recombinant baculovirus (pFastBacMam)
In short: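 Flag-CARM1-His (isoform 1, Δ539-561; HEK293F-expressed), 0.25 nM, preincubated 30 min RT with compound, then 30 nM 3H-SAM and 250 nM biotinylated H3(16-30) R26me1 peptide in pH 7.6 Bicine buffer, 2% DMSO. Stopped with 300 uM cold SAM; streptavidin Flashplate capture, cpm. % inhibition vs DMSO/1 mM SAH, 3- or 4-parameter fit.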

[1] = system: asymmetric di-methyl PABP1 in RKO cells; assay: RKO methylation assay (In Cell Western for asymmetric di-methyl PABP1); type: cell-based; conditions: Homo sapiens, 48 hours incubation, read-out: Cellular IC50
In short: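 RKO cells treated 48 h at 37 °C, then fixed, methanol-permeabilized and probed for asymmetric di-methyl PABP1 (16 h, 4 °C) with DRAQ5 counterstain; 800/700 nm intensity ratio read.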

T1 sequence (Q86X55 other isoform, or with tags, fused parts or gaps): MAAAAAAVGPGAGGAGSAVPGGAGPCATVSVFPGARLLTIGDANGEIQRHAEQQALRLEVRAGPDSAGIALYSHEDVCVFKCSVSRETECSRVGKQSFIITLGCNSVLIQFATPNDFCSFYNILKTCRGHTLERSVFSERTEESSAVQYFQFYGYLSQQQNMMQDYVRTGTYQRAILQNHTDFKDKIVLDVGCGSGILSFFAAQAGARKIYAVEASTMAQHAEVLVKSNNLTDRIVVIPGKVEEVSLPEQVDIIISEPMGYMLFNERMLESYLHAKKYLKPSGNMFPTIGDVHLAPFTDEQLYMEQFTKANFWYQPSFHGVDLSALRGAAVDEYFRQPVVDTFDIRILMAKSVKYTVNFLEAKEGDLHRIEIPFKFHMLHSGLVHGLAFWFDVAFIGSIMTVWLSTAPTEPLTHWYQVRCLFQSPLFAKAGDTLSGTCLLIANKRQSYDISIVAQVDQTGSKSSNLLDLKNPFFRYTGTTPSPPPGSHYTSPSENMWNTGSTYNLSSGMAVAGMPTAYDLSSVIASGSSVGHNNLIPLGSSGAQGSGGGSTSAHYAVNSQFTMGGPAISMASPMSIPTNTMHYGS

| SMILES | IC50 (Human CARM1 (PRMT4)) | IC50 [1] |
| --- | --- | --- |
| CNCC(O)COc1cccc(-c2nc(NCc3nccs3)c3cnn(C4CC4)c3n2)c1 (centres unmarked) [Example 8-9] | 0.1 to 1 µM | 10 to 20 µM |
| CNCC(O)COc1cccc(-c2cc(N3CCOC3=O)n3ncc(C(C)C)c3n2)c1 (centres unmarked) [Example 20-9] | 0.1 to 1 µM | > 20 µM |
| CNCC(O)COc1cc(Cl)cc(-c2cc(NC3CCOCC3)c3cnn(C(C)C)c3n2)c1 (centres unmarked) [Example 2-4] | < 0.1 µM | > 20 µM |
| CNCC(O)COc1cccc(-c2cc(NCC#N)c3cnn(C(C)C)c3n2)c1 (centres unmarked) [Example 3-8] | 0.1 to 1 µM | > 20 µM |
| CN(c1cc(-c2cccc(OCC(O)CN)c2)nc2c(C(C)(C)C)cnn12)C1CCOCC1 (centres unmarked) [Example 10-9] | 0.1 to 1 µM | > 20 µM |
| CNCC(O)COc1cc(Cl)cc(-c2cc(N3CC(CO)(CCl)C3)n3ncc(C(C)C)c3n2)c1 (centres unmarked) [Example 53-6] | < 0.1 µM | > 20 µM |
| CNCC(O)COc1cccc(-c2cc(-c3cnc4[nH]ccc4c3)nc3c(C(C)C)cnn23)c1 (centres unmarked) [Example 4-7] | < 0.1 µM | > 20 µM |
| CNCC(O)COc1cc(Cl)cc(-c2cc(NC3C4COCC43)n3ncc(C(C)C)c3n2)c1 (centres unmarked) [Example 38-6] | 0.1 to 1 µM | > 20 µM |
| CC(C)n1ncc2c(N3CCOCC3)nc(-c3cccc(OCC(O)CN)c3)nc21 (centres unmarked) [Example 6-5] | < 0.1 µM | > 20 µM |
| CNCC(O)COc1cc(CO)cc(-c2cc(NC3CCOCC3)c3cnn(C(C)C)c3n2)c1 (centres unmarked) [Example 23-9] | 0.1 to 1 µM | > 20 µM |
| CNCC(O)COc1cccc(-c2cc(N3CCOCC3)n3ncc(C(C)C)c3n2)c1 (centres unmarked) [Example 7-6] | 0.1 to 1 µM | > 20 µM |
| CNCC(O)COc1cc(OC)cc(-c2cc(N3CC4(CCOCC4)C3)n3ncc(C(C)C)c3n2)c1 (centres unmarked) [Example 49-6] | 0.1 to 1 µM | > 20 µM |
| CNCC(O)COc1cccc(-c2cc(N(C)CCOC)n3ncc(C(C)C)c3n2)c1 (centres unmarked) [Example 12-6] | < 0.1 µM | > 20 µM |
| CCN(c1cc(-c2cc(OC)cc(OCC(O)CN)c2)nc2c(C(C)C)cnn12)C1CCOCC1 (centres unmarked) [Example 14-8] | < 0.1 µM | > 20 µM |
| CNCC(O)COc1cccc(-c2nc(NCc3cc(C)nn3C)c3cnn(C4CC4)c3n2)c1 (centres unmarked) [Example 34-5] | < 0.1 µM | > 20 µM |
| CNCC(O)COc1cc(OC)cc(-c2cc(N3CCOCC3)nc3c(C4CC4)cnn23)c1 (centres unmarked) [Example 3-7] | < 0.1 µM | 10 to 20 µM |
| CNCC(O)COc1cccc(-c2nc(NCc3cccc[n+]3[O-])c3cnn(C4CC4)c3n2)c1 (centres unmarked) [Example 31-5] | 0.1 to 1 µM | > 20 µM |
| CC(C)c1cnn2c(N3CCOCC3)cc(-c3cccc(OC[C@H](O)CN)c3)nc12 [Example 10-8] | < 0.1 µM | > 20 µM |
| CNCC(O)COc1cccc(-c2cc(NC(=O)NC)c3cnn(C(C)C)c3n2)c1 (centres unmarked) [Example 11-9] | 0.1 to 1 µM | > 20 µM |
| CNCC(O)COc1cc(Cl)cc(-c2cc(NC3CCOCC3)c3c(C)nn(C(C)C)c3n2)c1 (centres unmarked) [Example 22-4] | < 0.1 µM | 5 to 10 µM |
| CNCC(O)COc1cccc(-c2nc(NCc3cccnc3)c3cnn(C4CC4)c3n2)c1 (centres unmarked) [Example 17-9] | 0.1 to 1 µM | > 20 µM |
| CNCC(O)COc1cccc(-c2cc(NS(=O)(=O)N(C)C)c3cnn(C(C)C)c3n2)c1 (centres unmarked) [Example 27-9] | 0.1 to 1 µM | > 20 µM |
| Cc1cc(CNc2nc(-c3cccc(OCC(O)CN)c3)nc3c2cnn3C2CC2)no1 (centres unmarked) [Example 15-5] | 0.1 to 1 µM | > 20 µM |
| Cn1ccc(CNc2nc(-c3cccc(OCC(O)CN)c3)nc3c2cnn3C2CC2)n1 (centres unmarked) [Example 14-5] | 0.1 to 1 µM | > 20 µM |
| CNCC(O)COc1cc(Cl)cc(-c2cc(N3CCOCC3)n3ncc(C(C)C)c3n2)c1 (centres unmarked) [Example 27-6] | < 0.1 µM | > 20 µM |

| SMILES | IC50 (Human CARM1 (PRMT4)) | IC50 [1] |
| --- | --- | --- |
| CNCC(O)COc1cc(Cl)cc(-c2cc(N[C@@H]3CCOC3)n3ncc(C(C)C)c3n2)c1 (some centres unmarked) [Example 29-6] | < 0.1 µM | > 20 µM |
| NCC(O)COc1cccc(-c2nc(NCc3cn4ccsc4n3)c3cnn(C4CC4)c3n2)c1 (centres unmarked) [Example 39-5] | < 0.1 µM | 10 to 20 µM |
| CNCC(O)COc1cc(Cl)cc(-c2cc(NC3CCOCC3)n3ncc(C(C)(C)C)c3n2)c1 (centres unmarked) [Example 48-6] | < 0.1 µM | > 20 µM |
| NCC(O)COc1cccc(-c2nc(NCc3ccccn3)c3cnn(C4CC4)c3n2)c1 (centres unmarked) [Example 13-5] | 0.1 to 1 µM | > 20 µM |
| Cc1cc(OCC(O)CN)cc(-c2cc(N3CCOCC3)c3cnn(C(C)C)c3n2)c1 (centres unmarked) [Example 4-4] | < 0.1 µM | 10 to 20 µM |
| NCC(O)COc1cccc(-c2nc(NCc3nccs3)c3cnn(C4CC4)c3n2)c1 (centres unmarked) [Example 18-5] | < 0.1 µM | > 20 µM |
| CNCC(O)COc1cccc(-c2cc(N3CC4(CCOCC4)C3)n3ncc(C(C)C)c3n2)c1 (centres unmarked) [Example 32-6] | < 0.1 µM | > 20 µM |
| NCC(O)COc1cccc(-c2nc(N3C4CCC3COC4)c3cnn(C4CC4)c3n2)c1 (centres unmarked) [Example 17-5] | < 0.1 µM | > 20 µM |
| CC(C)c1cnn2c(N3CCOCC3)cc(-c3cccc(OCC(O)CN)c3)nc12 (centres unmarked) [Example 4-8] | < 0.1 µM | > 20 µM |
| CNCC(O)COc1cccc(-c2nc(NC3CCOCC3)c3cnn(C4CC4)c3n2)c1 (centres unmarked) [Example 19-5] | 0.1 to 1 µM | > 20 µM |
| CNCC(O)COc1cccc(-c2nc(NC3CCOC3)c3cnn(C(C)C)c3n2)c1 (centres unmarked) [Example 10-5] | < 0.1 µM | 10 to 20 µM |
| COc1cc(OCC(O)CN)cc(-c2cc(N3CCOCC3)c3cnn(C(C)C)c3n2)c1 (centres unmarked) [Example 5-4] | < 0.1 µM | 10 to 20 µM |
| CNCC(O)COc1cc(Cl)cc(-c2cc(-c3cc[nH]n3)nc3c(C(C)C)cnn23)c1 (centres unmarked) [Example 2-7] | < 0.1 µM | > 20 µM |
| CC(C)n1ncc2c(N3CCOCC3)cc(-c3cccc(CCC(O)CN)c3)nc21 (centres unmarked) [Example 13-9] | 0.1 to 1 µM | > 20 µM |
| CNCC(O)COc1cccc(-c2nc(N3CCOCC3)c3cnn(C(C)(C)C)c3n2)c1 (centres unmarked) [Example 20-5] | < 0.1 µM | > 20 µM |
| CNCC(O)COc1cccc(-c2cc(N(C)Cc3ccccn3)c3cnn(C(C)C)c3n2)c1 (centres unmarked) [Example 3-9] | < 0.1 µM | 10 to 20 µM |
| CC(C)n1ncc2c(N3CCOCC3)cc(-c3cccc(SCC(O)CN)c3)nc21 (centres unmarked) [Example 21-9] | 0.1 to 1 µM | > 20 µM |
| CNCC(O)COc1cc(OC)cc(-c2cc(NC3CCOCC3)n3ncc(C(C)C)c3n2)c1 (centres unmarked) [Example 34-6] | < 0.1 µM | > 20 µM |
| CC(C)c1cnn2c(N(C)C3CCOCC3)cc(-c3cccc(OCC(O)CN)c3)nc12 (centres unmarked) [Example 11-8] | 0.1 to 1 µM | > 20 µM |
| CNC[C@H](O)COc1cccc(-c2cc(N3CCOCC3)n3ncc(C(C)C)c3n2)c1 [Example 9-6] | < 0.1 µM | > 20 µM |
| Cc1cc(C)c(CNc2nc(-c3cccc(OCC(O)CN)c3)nc3c2cnn3C2CC2)c(=O)[nH]1 (centres unmarked) [Example 38-5] | 0.1 to 1 µM | > 20 µM |
| CC(C)n1ncc2c(N3CCOCC3)cc(-c3cc(OCC(O)CN)cc(OC(F)(F)F)c3)nc21 (centres unmarked) [Example 24-4] | 0.1 to 1 µM | > 20 µM |
| CNCC(O)COc1cc(Cl)cc(-c2cc(N(C)[C@@H]3CCOC3)n3ncc(C(C)C)c3n2)c1 (some centres unmarked) [Example 40-6] | < 0.1 µM | > 20 µM |
| CNCC(O)COc1cccc(-c2nc(NCc3cn4cccc(C)c4n3)c3cnn(C4CC4)c3n2)c1 (centres unmarked) [Example 44-5] | 0.1 to 1 µM | 10 to 20 µM |
